Results published in patent US10743535B2, “Insecticide for flight-capable pests” (H&K SOLUTIONS LLC, priority 2017, dated 2020).

Legend:
lanternfly = conditions: in vivo; cited from earlier work
bees = conditions: perhaps contributing to the collapse of bee colonies; cited from earlier work
[1] = system: spotted lanternflies (lycorma delicatula); test: formulations sprayed on lantern flies to test lethality; assay type: in vivo; conditions: applied by spraying the top of the insect; lethal = the insect dies within 10 minutes
Description: The concentration of menthol in the insecticide should be sufficient such that it is lethal to the insect. As used herein, the term “lethal” means that, once applied by spraying the top of the insect, the insect dies within 10 minutes. Those of skill in the art can determine a lethal dose of menthol without undue experimentation. Although higher doses tend to result in a shorter kill time, given the expense of menthol, it is generally preferred to minimize its concentration to achieve a sufficient kill time, i.e., less than 10 minutes and preferably less than 2 minutes, and more preferably less than 1 minute.
The following nonlimiting examples illustrate the effectiveness of the insecticide of the present invention. […] In all cases, the formulations were applied to lantern flies to test the effectiveness of the particular formulation, and, in all cases, the formulations were lethal as defined in this application.
Again, in all cases, the formulations were applied to lantern flies to test the effectiveness of the particular formulation, and, in all cases, the formulation were lethal as defined in this application.

Row | SMILES | shown to be effective in exterminating the lanternfly (lanternfly) | time to kill the lanternfly (lanternfly) | effect on bees (bees) | lethal to lanternfly [1]
1 | CC1(C)C(C=C(Cl)Cl)C1C(=O)OCc1cccc(Oc2ccccc2)c1 (centres unmarked) [Permethrin] | effective |  |  | 
2 | CN/C(=N/CC1CCOC1)N[N+](=O)[O-] (centres unmarked) [Dinotefuran] | effective | hours | detrimental | 
3 | CC1CCC(C(C)C)C(O)C1 (centres unmarked) [menthol] |  |  |  | lethal
